Measured values from article PMC9133015 (Nature Communications, 2022).
“And” between values parts separate entries of the source, which are not always exact repeats. Equal values may be shown once.

Legend:
Assay in all cases: Kinase inhibitor specificity profiling (Reaction Biology Corporation)
Type in all cases: biochemical
Design in all cases: % Enzyme Activity (relative to DMSO controls): concentration or dose not given beside the values
[1] = biological target: T1, panel of 370 protein kinases (Homo sapiens, UniProt O43318); conditions: 2 h, kinase TAK1; read-out: % Enzyme Activity (relative to DMSO controls)
T1 construct: purchased Reaction Biology Corporation (assay service)

[2] = biological target: T2, panel of 370 protein kinases (Homo sapiens, UniProt P17252); conditions: 2 h, kinase PKCa; read-out: % Enzyme Activity (relative to DMSO controls)
T2 construct: purchased Reaction Biology Corporation (assay service)

[3] = biological target: T3, panel of 370 protein kinases (Homo sapiens, UniProt P29323); conditions: kinase EPHB2
T3 construct: purchased Reaction Biology Corporation (assay service)

[4] = biological target: T4, panel of 370 protein kinases (Homo sapiens, UniProt P36507); conditions: 2 h, kinase MEK2; read-out: % Enzyme Activity (relative to DMSO controls)
T4 construct: purchased Reaction Biology Corporation (assay service)

[5] = biological target: T5, panel of 370 protein kinases (Homo sapiens, UniProt P36894); conditions: 2 h, kinase ALK3/BMPR1A; read-out: % Enzyme Activity (relative to DMSO controls)
T5 construct: purchased Reaction Biology Corporation (assay service)

[6] = biological target: T6, panel of 370 protein kinases (Homo sapiens, UniProt P43403); conditions: 2 h, kinase ZAP70; read-out: % Enzyme Activity (relative to DMSO controls)
T6 construct: purchased Reaction Biology Corporation (assay service)

[7] = biological target: T7, panel of 370 protein kinases (Homo sapiens, UniProt P52333); conditions: 2 h, kinase JAK3; read-out: % Enzyme Activity (relative to DMSO controls)
T7 construct: purchased Reaction Biology Corporation (assay service)

[8] = biological target: T8, panel of 370 protein kinases (Homo sapiens, UniProt P54762); conditions: 2 h, kinase EPHB1; read-out: % Enzyme Activity (relative to DMSO controls)
T8 construct: purchased Reaction Biology Corporation (assay service)

[9] = biological target: T9, panel of 370 protein kinases (Homo sapiens, UniProt P68400); conditions: 2 h, kinase CK2a; read-out: % Enzyme Activity (relative to DMSO controls)
T9 construct: purchased Reaction Biology Corporation (assay service)

[10] = biological target: T10, panel of 370 protein kinases (Homo sapiens, UniProt Q04771); conditions: 2 h, kinase ALK2/ACVR1; read-out: % Enzyme Activity (relative to DMSO controls)
T10 construct: purchased Reaction Biology Corporation (assay service)

[11] = biological target: T11, panel of 370 protein kinases (Homo sapiens, UniProt Q05397); conditions: 2 h, kinase FAK/PTK2; read-out: % Enzyme Activity (relative to DMSO controls)
T11 construct: purchased Reaction Biology Corporation (assay service)

[12] = biological target: T12, panel of 370 protein kinases (Homo sapiens, UniProt Q12851); conditions: 2 h, kinase GCK/MAP4K2; read-out: % Enzyme Activity (relative to DMSO controls)
T12 construct: purchased Reaction Biology Corporation (assay service)

[13] = biological target: T13, panel of 370 protein kinases (Homo sapiens, UniProt Q15349); conditions: 2 h, kinase RSK3; read-out: % Enzyme Activity (relative to DMSO controls)
T13 construct: purchased Reaction Biology Corporation (assay service)

[14] = biological target: T14, panel of 370 protein kinases (Homo sapiens, UniProt Q16816); conditions: 2 h, kinase PHKg1; read-out: % Enzyme Activity (relative to DMSO controls)
T14 construct: purchased Reaction Biology Corporation (assay service)

[15] = biological target: T15, panel of 370 protein kinases (Homo sapiens, UniProt Q5VT25); conditions: 2 h, kinase MRCKa/CDC42BPA; read-out: % Enzyme Activity (relative to DMSO controls)
T15 construct: purchased Reaction Biology Corporation (assay service)

[16] = biological target: T16, panel of 370 protein kinases (Homo sapiens, UniProt Q86UX6); conditions: 2 h, kinase STK32C/YANK3; read-out: % Enzyme Activity (relative to DMSO controls)
T16 construct: purchased Reaction Biology Corporation (assay service)

[17] = biological target: T17, panel of 370 protein kinases (Homo sapiens, UniProt Q8IWQ3); conditions: 2 h, kinase BRSK2; read-out: % Enzyme Activity (relative to DMSO controls)
T17 construct: purchased Reaction Biology Corporation (assay service)

[18] = biological target: T18, panel of 370 protein kinases (Homo sapiens, UniProt Q96SB4); conditions: 2 h, kinase SRPK1; read-out: % Enzyme Activity (relative to DMSO controls)
T18 construct: purchased Reaction Biology Corporation (assay service)

[19] = biological target: T19, panel of 370 protein kinases (Homo sapiens, UniProt Q9H1R3); conditions: 2 h, kinase MLCK2/MYLK2; read-out: % Enzyme Activity (relative to DMSO controls)
T19 construct: purchased Reaction Biology Corporation (assay service)

[20] = biological target: T20, panel of 370 protein kinases (Homo sapiens, UniProt Q9P289); conditions: 2 h, kinase MST4; read-out: % Enzyme Activity (relative to DMSO controls)
T20 construct: purchased Reaction Biology Corporation (assay service)

[21] = biological target: T21, panel of 370 protein kinases (Homo sapiens, UniProt Q9UIK4); conditions: 2 h, kinase DAPK2; read-out: % Enzyme Activity (relative to DMSO controls)
T21 construct: purchased Reaction Biology Corporation (assay service)

T3 sequence (P29323 19-1055): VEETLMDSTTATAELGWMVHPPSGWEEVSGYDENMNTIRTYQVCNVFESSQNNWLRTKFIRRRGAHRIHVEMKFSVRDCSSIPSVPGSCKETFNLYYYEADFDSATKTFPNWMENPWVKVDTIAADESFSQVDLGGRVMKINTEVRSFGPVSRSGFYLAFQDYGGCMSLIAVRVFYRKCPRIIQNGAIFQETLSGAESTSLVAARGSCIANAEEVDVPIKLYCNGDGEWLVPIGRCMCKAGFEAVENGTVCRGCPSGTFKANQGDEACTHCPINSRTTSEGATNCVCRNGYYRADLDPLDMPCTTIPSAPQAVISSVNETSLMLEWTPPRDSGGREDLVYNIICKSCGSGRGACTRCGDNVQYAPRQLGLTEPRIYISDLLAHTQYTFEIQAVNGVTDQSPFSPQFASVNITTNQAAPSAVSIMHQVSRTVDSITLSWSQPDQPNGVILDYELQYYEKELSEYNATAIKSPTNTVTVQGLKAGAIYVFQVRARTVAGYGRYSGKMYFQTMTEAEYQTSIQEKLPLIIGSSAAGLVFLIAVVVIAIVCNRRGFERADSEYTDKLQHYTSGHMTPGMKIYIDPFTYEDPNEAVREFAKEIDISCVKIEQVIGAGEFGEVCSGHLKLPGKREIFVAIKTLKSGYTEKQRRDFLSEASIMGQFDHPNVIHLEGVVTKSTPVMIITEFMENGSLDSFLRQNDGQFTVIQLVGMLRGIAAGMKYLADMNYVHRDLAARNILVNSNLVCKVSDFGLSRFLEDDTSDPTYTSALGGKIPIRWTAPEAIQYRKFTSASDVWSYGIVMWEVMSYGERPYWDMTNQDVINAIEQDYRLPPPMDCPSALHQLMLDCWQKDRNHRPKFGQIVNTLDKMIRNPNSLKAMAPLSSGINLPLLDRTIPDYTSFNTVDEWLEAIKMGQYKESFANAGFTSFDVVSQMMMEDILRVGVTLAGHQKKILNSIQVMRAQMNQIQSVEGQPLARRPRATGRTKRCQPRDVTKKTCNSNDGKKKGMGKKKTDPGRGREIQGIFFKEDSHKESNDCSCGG
T8 sequence (P54762 18-984): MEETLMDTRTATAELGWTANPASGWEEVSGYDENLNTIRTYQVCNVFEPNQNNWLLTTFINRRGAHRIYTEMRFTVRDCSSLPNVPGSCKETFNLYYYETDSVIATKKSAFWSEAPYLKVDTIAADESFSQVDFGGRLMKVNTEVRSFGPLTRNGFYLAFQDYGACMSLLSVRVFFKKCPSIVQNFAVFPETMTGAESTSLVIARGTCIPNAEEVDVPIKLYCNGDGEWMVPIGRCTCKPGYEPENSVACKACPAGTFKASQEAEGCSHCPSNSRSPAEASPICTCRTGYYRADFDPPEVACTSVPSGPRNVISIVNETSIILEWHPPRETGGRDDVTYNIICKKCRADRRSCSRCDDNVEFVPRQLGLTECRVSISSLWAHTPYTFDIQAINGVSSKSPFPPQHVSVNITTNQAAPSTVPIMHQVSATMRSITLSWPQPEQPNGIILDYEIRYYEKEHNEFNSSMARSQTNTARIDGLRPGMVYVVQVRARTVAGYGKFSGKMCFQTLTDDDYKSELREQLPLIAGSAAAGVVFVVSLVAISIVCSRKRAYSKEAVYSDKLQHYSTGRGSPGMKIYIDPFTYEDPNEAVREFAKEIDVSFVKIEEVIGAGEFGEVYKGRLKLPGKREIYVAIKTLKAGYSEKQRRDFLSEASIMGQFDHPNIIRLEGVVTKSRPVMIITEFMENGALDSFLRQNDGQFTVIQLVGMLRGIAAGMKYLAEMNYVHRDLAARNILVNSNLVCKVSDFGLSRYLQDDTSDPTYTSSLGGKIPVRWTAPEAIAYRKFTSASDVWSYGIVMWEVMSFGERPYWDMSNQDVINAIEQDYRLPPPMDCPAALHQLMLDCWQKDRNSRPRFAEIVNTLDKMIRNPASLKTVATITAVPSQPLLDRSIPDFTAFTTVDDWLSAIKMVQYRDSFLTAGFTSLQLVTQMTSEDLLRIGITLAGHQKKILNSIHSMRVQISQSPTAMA
T7 sequence (P52333 whole entry): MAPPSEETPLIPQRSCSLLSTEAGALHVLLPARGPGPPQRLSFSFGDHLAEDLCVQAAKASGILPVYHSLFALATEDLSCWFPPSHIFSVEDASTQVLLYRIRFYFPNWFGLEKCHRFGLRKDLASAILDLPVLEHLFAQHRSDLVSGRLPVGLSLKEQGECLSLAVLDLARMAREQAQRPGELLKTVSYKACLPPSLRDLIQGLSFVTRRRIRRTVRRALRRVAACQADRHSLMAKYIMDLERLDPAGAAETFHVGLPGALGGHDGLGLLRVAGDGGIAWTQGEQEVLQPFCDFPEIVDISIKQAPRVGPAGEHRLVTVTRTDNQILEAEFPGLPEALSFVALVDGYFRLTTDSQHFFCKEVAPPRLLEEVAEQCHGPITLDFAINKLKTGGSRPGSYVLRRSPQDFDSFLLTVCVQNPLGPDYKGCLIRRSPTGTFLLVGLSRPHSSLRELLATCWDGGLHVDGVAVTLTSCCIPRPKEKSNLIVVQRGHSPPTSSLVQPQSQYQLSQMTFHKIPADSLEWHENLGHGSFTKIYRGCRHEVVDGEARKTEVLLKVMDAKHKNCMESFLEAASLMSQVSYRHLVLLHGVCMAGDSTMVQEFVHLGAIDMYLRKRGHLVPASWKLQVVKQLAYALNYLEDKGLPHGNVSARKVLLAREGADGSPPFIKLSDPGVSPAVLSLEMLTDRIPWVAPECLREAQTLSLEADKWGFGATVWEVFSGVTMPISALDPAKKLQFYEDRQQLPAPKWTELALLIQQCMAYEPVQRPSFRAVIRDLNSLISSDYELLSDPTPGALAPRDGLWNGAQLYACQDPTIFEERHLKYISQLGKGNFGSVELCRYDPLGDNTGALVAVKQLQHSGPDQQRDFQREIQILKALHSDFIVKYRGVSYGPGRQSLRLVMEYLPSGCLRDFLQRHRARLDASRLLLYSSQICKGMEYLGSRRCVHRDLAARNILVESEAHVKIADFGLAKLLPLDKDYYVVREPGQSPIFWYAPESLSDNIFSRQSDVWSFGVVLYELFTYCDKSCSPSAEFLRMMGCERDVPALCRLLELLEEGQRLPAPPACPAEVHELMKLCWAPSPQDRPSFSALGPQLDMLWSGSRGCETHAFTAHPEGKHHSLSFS
T13 sequence (Q15349 whole entry): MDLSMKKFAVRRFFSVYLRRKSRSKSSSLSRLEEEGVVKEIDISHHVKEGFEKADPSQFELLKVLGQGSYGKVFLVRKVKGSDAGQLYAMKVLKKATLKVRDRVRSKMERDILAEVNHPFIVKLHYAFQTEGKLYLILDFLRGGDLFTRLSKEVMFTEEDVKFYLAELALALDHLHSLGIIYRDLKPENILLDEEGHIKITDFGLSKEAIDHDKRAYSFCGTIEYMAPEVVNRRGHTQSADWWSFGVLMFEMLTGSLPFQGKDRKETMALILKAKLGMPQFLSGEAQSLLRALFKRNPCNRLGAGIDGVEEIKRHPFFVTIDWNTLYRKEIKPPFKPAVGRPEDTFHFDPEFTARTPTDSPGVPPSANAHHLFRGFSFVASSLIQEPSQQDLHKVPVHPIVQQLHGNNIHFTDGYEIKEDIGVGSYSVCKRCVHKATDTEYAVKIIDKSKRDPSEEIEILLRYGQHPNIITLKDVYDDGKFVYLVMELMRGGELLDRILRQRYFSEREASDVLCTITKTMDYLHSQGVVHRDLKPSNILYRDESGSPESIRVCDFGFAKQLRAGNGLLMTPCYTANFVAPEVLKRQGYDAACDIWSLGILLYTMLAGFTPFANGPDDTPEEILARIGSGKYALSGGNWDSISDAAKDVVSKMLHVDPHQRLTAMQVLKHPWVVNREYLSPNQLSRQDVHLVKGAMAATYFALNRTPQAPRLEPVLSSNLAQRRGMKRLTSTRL
T16 sequence (Q86UX6 whole entry): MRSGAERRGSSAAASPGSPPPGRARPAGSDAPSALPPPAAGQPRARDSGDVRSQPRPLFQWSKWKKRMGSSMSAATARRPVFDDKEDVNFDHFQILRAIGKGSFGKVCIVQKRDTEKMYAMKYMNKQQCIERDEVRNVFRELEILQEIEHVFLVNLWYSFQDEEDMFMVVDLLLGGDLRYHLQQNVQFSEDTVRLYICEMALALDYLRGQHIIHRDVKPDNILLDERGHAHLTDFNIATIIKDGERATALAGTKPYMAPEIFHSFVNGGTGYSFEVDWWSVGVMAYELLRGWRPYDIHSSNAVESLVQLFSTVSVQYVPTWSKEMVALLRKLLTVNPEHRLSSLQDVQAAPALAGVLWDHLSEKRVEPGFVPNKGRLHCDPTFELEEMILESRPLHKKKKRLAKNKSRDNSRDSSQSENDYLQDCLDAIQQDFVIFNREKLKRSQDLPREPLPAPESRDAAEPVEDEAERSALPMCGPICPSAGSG
T1 sequence (O43318 whole entry): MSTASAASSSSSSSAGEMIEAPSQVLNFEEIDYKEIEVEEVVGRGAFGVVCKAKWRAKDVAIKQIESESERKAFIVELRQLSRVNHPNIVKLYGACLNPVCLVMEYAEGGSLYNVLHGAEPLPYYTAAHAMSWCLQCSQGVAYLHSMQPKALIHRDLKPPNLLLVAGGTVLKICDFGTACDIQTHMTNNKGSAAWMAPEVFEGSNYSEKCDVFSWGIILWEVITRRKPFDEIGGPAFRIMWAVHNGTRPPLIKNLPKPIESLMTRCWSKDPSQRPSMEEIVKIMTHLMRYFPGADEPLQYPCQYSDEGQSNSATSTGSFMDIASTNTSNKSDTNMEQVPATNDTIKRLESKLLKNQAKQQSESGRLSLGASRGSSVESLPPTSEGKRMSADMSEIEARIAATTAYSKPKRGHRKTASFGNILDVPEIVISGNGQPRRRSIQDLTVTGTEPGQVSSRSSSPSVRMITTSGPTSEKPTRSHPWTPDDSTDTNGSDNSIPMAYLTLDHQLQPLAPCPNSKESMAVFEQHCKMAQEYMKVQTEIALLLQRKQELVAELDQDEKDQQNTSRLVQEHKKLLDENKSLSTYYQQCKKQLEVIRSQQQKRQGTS

With `CCN1CCN(C(=O)c2ccc(Nc3ncc(F)c(-c4ccc5nc(N(C)C)sc5c4)n3)nc2)CC1` [YK-2-69] the remaining activity at 1 µM [1] was 103%, the remaining activity at 1 µM [2] was 80% and the “% Enzyme Activity (relative to DMSO controls)” value [3] was 102.42% and 102.08%. It also gave a remaining activity at 1 µM [4] of 97.4%, a remaining activity at 1 µM [5] of 168% and a remaining activity at 1 µM [6] of 87.8%. The remaining activity at 1 µM [7] was 111%, the remaining activity at 1 µM [8] was 94% and the remaining activity at 1 µM [9] was 52.3%. The remaining activity at 1 µM [10] was 160%, the remaining activity at 1 µM [11] was 95.9% and the remaining activity at 1 µM [12] was 96%. The remaining activity at 1 µM [13] was 104%, the remaining activity at 1 µM [14] was 89.4% and the remaining activity at 1 µM [15] was 111%. It also gave a remaining activity at 1 µM [16] of 96.8%, a remaining activity at 1 µM [17] of 96.3% and a remaining activity at 1 µM [18] of 91.8%. It also gave a remaining activity at 1 µM [19] of 78.7%, a remaining activity at 1 µM [20] of 98.4% and a remaining activity at 1 µM [21] of 89.2%.
